Laboratory results from US12091652B2, “Ammonia-oxidizing Nitrosomonas eutropha strain D23” (priority 2014, dated 2024).
Read-outs that look alike come from different tables or passages of the source.

Tested on: Nitrosomonas eutropha D23
Assay: Antibiotic susceptibility (MIC) of N. eutropha D23 cultures in vitro
Type: cell-based
Conditions: for MIC: 30° C., 48-72 hr, OD600, two-fold dilution series; for MIC Interpretive Criteria (phenotype of N. eutropha D23): CLSI criteria, MIC levels of the outcome stand in parentheses in the cell
Procedure: The activities of five antibiotics, each representing a different antibiotic class, were tested against Nitrosomonas eutropha D23. The antibiotics tested included clindamycin, erythromycin, gentamicin, piperacillin with or without the β-lactamase inhibitor Tazobactam, and tetracycline. These were chosen based on the Clinical and Laboratory Standards Institute (CLSI) recommendations for routine testing and reporting of phylogenetically-related proteobacteria (Pseudomonas aeruginosa) listed under Non-fastidious organisms and Non-Enterobacteriaceae in the CLSI 24th Informational Supplement (M100-S24), and also included topical or systemic antimicrobial agents commonly used against acne, such as clindamycin or tetracycline. Studies with clindamycin were included even though this antibiotic was not expected to be very effective at inhibiting Nitrosomonas, as is the case for other aerobic Gram-negative bacteria.
Minimal Inhibitory Concentrations (MICs) were determined by culturing N. eutropha D23 in decreasing concentrations of each of the five antibiotics. Bacterial growth at 30° C. was monitored for 48-72 hr by determining optical density (OD600) values in samples collected at 24 hr intervals. MIC values were identified as the lowest antibiotic concentration from a two-fold dilution series leading to no increase in OD600 measurements for the 2 or 3-day incubation period. The N. eutropha D23 phenotype in each antibiotic test was determined as Susceptible, Intermediate, or Resistant according to the MIC Interpretive Criteria provided by the CLSI. […] Clindamycin resistance observed for N. eutropha D23 is in agreement with previous reports for natural resistance of aerobic Gram-negative bacteria to this antibiotic. In addition to testing the β-lactam antibiotic piperacillin alone, the broad range β-lactamase inhibitor Tazobactam was also tested in combination with piperacillin to assess the possible expression of β-lactamase(s) by N. eutropha D23.

[1] = Nitrosomonas eutropha, D23, read-out: MIC

Row | Compound | MIC [1] [µg/mL] | MIC Interpretive Criteria (phenotype of N. eutropha D23) | also measured
1 | C[C@]1(Cn2ccnn2)[C@H](C(=O)O)N2C(=O)C[C@H]2S1(=O)=O [Tazobactam] |  |  | effect of adding the β-lactamase inhibitor to piperacillin on N. eutropha D23 susceptibility (in combination with piperacillin): no increase in N. eutropha D23 susceptibility
2 | CN(C)[C@@H]1C(O)=C(C(N)=O)C(=O)[C@@]2(O)C(O)=C3C(=O)c4c(O)cccc4[C@@](C)(O)[C@H]3C[C@@H]12 [Tetracycline] | 8 |  | 
3 | Gentamicin |  | Susceptible (≤4 μg/ml) | MIC: 0.25 µg/mL; MIC Interpretive Criteria (phenotype of N. eutropha D23) (listed as gentamicin): susceptibility
4 | CCN1CCN(C(=O)N[C@@H](C(=O)N[C@@H]2C(=O)N3[C@@H]2SC(C)(C)[C@@H]3C(=O)O)c2ccccc2)C(=O)C1=O [Piperacillin] | 64 | Intermediate (32-64 μg/ml) | MIC Interpretive Criteria (phenotype of N. eutropha D23) (listed as piperacillin): intermediate resistance
5 | CCC[C@@H]1C[C@@H](C(=O)N[C@@H]([C@H]2O[C@H](SC)[C@H](O)[C@@H](O)[C@H]2O)[C@H](C)Cl)N(C)C1 [Clindamycin] | > 16 |  | 
6 | Piperacillin/Tazobactam |  | Intermediate | MIC: 64/4
7 | CC[C@H]1OC(=O)[C@H](C)[C@@H](O[C@H]2C[C@@](C)(OC)[C@@H](O)[C@H](C)O2)[C@H](C)[C@@H](O[C@@H]2O[C@H](C)C[C@H](N(C)C)[C@H]2O)[C@](C)(O)C[C@@H](C)C(=O)[C@H](C)[C@@H](O)[C@]1(C)O [Erythromycin] | 0.16 | Susceptible (≤0.5 μg/ml) | MIC Interpretive Criteria (phenotype of N. eutropha D23) (listed as erythromycin): susceptibility
